From patent US8440660B2 (Santen Pharmaceutical Co., Ltd., priority 2006, dated 2013)

These compounds were tested against T1, Glucocorticoid Receptor (GR) (Homo sapiens, UniProt P04150) (assay: GR receptor competitor assay by fluorescence polarization (Invitrogen GR competitor assay kit, cat No. P2816)). Details: 20 μM test compound solution, 10 μL per well plus 5 μL 4×GS1 and 5 μL 4×GR solution; recombinant human GR; 2 to 4 hours at room temperature; a ratio of 100% or more is indicated by 100%; read-out: GR Binding ratio (%).
T1 construct: purchased Invitrogen P2816
T1 sequence (P04150 1-777): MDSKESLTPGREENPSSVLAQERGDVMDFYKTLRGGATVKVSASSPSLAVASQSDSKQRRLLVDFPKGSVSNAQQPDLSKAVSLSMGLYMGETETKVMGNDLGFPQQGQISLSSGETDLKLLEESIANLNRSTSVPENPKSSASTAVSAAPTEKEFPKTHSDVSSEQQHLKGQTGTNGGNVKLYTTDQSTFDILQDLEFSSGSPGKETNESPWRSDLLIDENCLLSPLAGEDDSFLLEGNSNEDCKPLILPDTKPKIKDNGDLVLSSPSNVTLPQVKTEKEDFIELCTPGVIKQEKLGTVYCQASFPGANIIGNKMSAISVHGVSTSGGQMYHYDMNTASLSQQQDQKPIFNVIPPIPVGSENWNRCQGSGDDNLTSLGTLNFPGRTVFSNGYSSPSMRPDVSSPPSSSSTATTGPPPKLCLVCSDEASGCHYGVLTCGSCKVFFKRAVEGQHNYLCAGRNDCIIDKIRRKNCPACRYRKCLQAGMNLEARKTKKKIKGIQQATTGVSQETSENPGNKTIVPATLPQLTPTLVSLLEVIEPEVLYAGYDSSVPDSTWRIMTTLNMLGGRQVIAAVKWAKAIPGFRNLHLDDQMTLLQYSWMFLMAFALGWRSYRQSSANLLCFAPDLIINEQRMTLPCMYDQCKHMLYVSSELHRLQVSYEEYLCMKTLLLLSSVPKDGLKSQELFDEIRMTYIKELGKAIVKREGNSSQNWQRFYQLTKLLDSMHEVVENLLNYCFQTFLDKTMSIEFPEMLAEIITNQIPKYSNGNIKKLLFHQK
In short: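 Recombinant human GR with fluorescent ligand Fluormone GS1 in pH 7.4 phosphate buffer with molybdate, EDTA, DTT, stabilizing peptide and 2% DMSO; compound added as 20 μM solution (pre-mix). FP read after 2–4 h at room temperature in the dark. Binding ratio (%) normalized between buffer and dexamethasone controls.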

In order of falling inhibition at 10 µM:
1. COc1cc(OC(=O)c2ccncc2)ccc1-c1ccc2c(c1COc1cc(F)ccc1C)C(C)=CC(C)(C)N2 [Compound 1-43, 5-(5-Fluoro-2-methylphenoxymethyl)-6-[2-methoxy-4-(pyridin-4-ylcarbonyloxy)phenyl]-2,2,4-trimethyl-1,2-dihydroquinoline]  100%
2. COc1cc(OC(=O)c2ccco2)ccc1-c1ccc2c(c1COc1cc(F)ccc1C)C(C)=CC(C)(C)N2 [Compound 1-19, 5-(5-Fluoro-2-methylphenoxymethyl)-6-[4-(furan-2-ylcarbonyloxy)-2-methoxyphenyl]-2,2,4-trimethyl-1,2-dihydroquinoline]  100%
3. COc1cc(OC(=O)c2occc2C)ccc1-c1ccc2c(c1COc1cc(F)ccc1C)C(C)=CC(C)(C)N2 [Compound 1-71, 5-(5-Fluoro-2-methylphenoxymethyl)-6-[2-methoxy-4-(3-methylfuran-2-ylcarbonyloxy)phenyl]-2,2,4-trimethyl-1,2-dihydroquinoline]  100%
4. COc1cc(OC(=O)c2cocn2)ccc1-c1ccc2c(c1COc1cc(F)ccc1C)C(C)=CC(C)(C)N2 [Compound 1-56, 5-(5-Fluoro-2-methylphenoxymethyl)-6-[2-methoxy-4-(oxazol-4-ylcarbonyloxy)phenyl]-2,2,4-trimethyl-1,2-dihydroquinoline]  100%
5. COc1cc(OC(=O)CNC(=O)OC(C)(C)C)ccc1-c1ccc2c(c1COc1cc(F)ccc1C)C(C)=CC(C)(C)N2 [Compound 1-2, 6-(4-t-Butoxycarbonylaminoacetoxy-2-methoxyphenyl)-5-(5-fluoro-2-methylphenoxymethyl)-2,2,4-trimethyl-1,2-dihydroquinoline]  100%
6. CCCS(=O)(=O)Oc1ccc(-c2ccc3c(c2COc2cc(F)ccc2C)C(C)=CC(C)(C)N3)c(OC)c1 [Compound 4-11, 5-(5-Fluoro-2-methylphenoxymethyl)-6-(2-methoxy-4-propylsulfonyloxyphenyl)-2,2,4-trimethyl-1,2-dihydroquinoline]  100%
7. COc1cc(OC(=O)c2cccnc2C)ccc1-c1ccc2c(c1COc1cc([N+](=O)[O-])ccc1C)C(C)=CC(C)(C)N2 [Compound 1-122, 6-[2-Methoxy-4-(2-methylpyridin-3-ylcarbonyloxy)phenyl]-5-(2-methyl-5-nitrophenoxymethyl)-2,2,4-trimethyl-1,2-dihydroquinoline]  100%
8. COc1cc(OC(=O)c2cncnc2)ccc1-c1ccc2c(c1COc1cc(F)ccc1C)C(C)=CC(C)(C)N2 [Compound 1-78, 5-(5-Fluoro-2-methylphenoxymethyl)-6-[2-methoxy-4-(pyrimidin-5-ylcarbonyloxy)phenyl]-2,2,4-trimethyl-1,2-dihydroquinoline]  100%
9. COc1cc(OC(=O)c2cccnc2)ccc1-c1ccc2c(c1COc1cc([N+](=O)[O-])ccc1C)C(C)=CC(C)(C)N2 [Compound 1-94, 6-[2-Methoxy-4-(pyridin-3-ylcarbonyloxy)phenyl]-5-(2-methyl-5-nitrophenoxymethyl)-2,2,4-trimethyl-1,2-dihydroquinoline]  100%
10. COc1ccc([N+](=O)[O-])cc1OCc1c(-c2ccc(OS(=O)(=O)C(C)C)cc2OC)ccc2c1C(C)=CC(C)(C)N2 [Compound 4-20, 6-(4-Isopropylsulfonyloxy-2-methoxyphenyl)-5-(2-methoxy-5-nitrophenoxymethyl)-2,2,4-trimethyl-1,2-dihydroquinoline]  100%
11. COc1cc(OC(=O)c2ccc(C)nc2)ccc1-c1ccc2c(c1COc1cc(F)ccc1C)C(C)=CC(C)(C)N2 [Compound 1-69, 5-(5-Fluoro-2-methylphenoxymethyl)-6-[2-methoxy-4-(6-methylpyridin-3-ylcarbonyloxy)phenyl]-2,2,4-trimethyl-1,2-dihydroquinoline]  100%
12. COc1ccc(C(=O)Oc2ccc(-c3ccc4c(c3COc3cc(F)ccc3C)C(C)=CC(C)(C)N4)c(OC)c2)cc1 [Compound 1-6]  100%
13. COc1cc(OC(=O)c2cscn2)ccc1-c1ccc2c(c1COc1cc(F)ccc1C)C(C)=CC(C)(C)N2 [Compound 1-54, 5-(5-Fluoro-2-methylphenoxymethyl)-6-[2-methoxy-4-(thiazol-4-ylcarbonyloxy)phenyl]-2,2,4-trimethyl-1,2-dihydroquinoline]  100%
14. CCS(=O)(=O)Oc1ccc(-c2ccc3c(c2COc2cc([N+](=O)[O-])ccc2C)C(C)=CC(C)(C)N3)c(OC)c1 [Compound 4-23, 6-(4-Ethylsulfonyloxy-2-methoxyphenyl)-5-(2-methyl-5-nitrophenoxymethyl)-2,2,4-trimethyl-1,2-dihydroquinoline]  100%
15. COc1cc(OC(=O)c2ccsc2)ccc1-c1ccc2c(c1COc1cc(F)ccc1C)C(C)=CC(C)(C)N2 [Compound 1-18, 5-(5-Fluoro-2-methylphenoxymethyl)-6-[2-methoxy-4-(thiophen-3-ylcarbonyloxy)phenyl]-2,2,4-trimethyl-1,2-dihydroquinoline]  100%
16. COc1cc(OC(=O)c2cnccc2C)ccc1-c1ccc2c(c1COc1cc(F)ccc1C)C(C)=CC(C)(C)N2 [Compound 1-70, 5-(5-Fluoro-2-methylphenoxymethyl)-6-[2-methoxy-4-(4-methylpyridin-3-ylcarbonyloxy)phenyl]-2,2,4-trimethyl-1,2-dihydroquinoline]  100%
17. COc1cc(OC(=O)C(C)(C)C)ccc1-c1ccc2c(c1COc1cc(F)ccc1C)C(C)=CC(C)(C)N2 [Compound 1-72, 6-(4-t-Butylcarbonyloxy-2-methoxyphenyl)-5-(5-fluoro-2-methylphenoxymethyl)-2,2,4-trimethyl-1,2-dihydroquinoline]  98%
18. COc1cc(OC(=O)c2ccccc2SC)ccc1-c1ccc2c(c1COc1cc(F)ccc1C)C(C)=CC(C)(C)N2 [Compound 1-52]  96%
19. COc1ccc(OC(=O)c2ccncc2)cc1-c1ccc2c(c1COc1cc(F)ccc1C)C(C)=CC(C)(C)N2 [Compound 1-45, 5-(5-Fluoro-2-methylphenoxymethyl)-6-[2-methoxy-5-(pyridin-4-ylcarbonyloxy)phenyl]-2,2,4-trimethyl-1,2-dihydroquinoline]  95%
20. CCS(=O)(=O)Oc1ccc(-c2ccc3c(c2COc2cc(F)ccc2C)C(C)=CC(C)(C)N3)c(OC)c1 [Compound 4-12, 6-(4-Ethylsulfonyloxy-2-methoxyphenyl)-5-(5-fluoro-2-methylphenoxymethyl)-2,2,4-trimethyl-1,2-dihydroquinoline]  92%
21. COc1cc(OC(=O)c2ccc([N+](=O)[O-])o2)ccc1-c1ccc2c(c1COc1cc(F)ccc1C)C(C)=CC(C)(C)N2 [Compound 1-86, 5-(5-Fluoro-2-methylphenoxymethyl)-6-[2-methoxy-4-(5-nitrofuran-2-ylcarbonyloxy)phenyl]-2,2,4-trimethyl-1,2-dihydroquinoline]  91%
22. COc1cc(OC(=O)CCc2ccccc2)ccc1-c1ccc2c(c1COc1cc(F)ccc1C)C(C)=CC(C)(C)N2 [Compound 1-33, 5-(5-Fluoro-2-methylphenoxymethyl)-6-[2-methoxy-4-(3-phenylpropionyloxy)phenyl]-2,2,4-trimethyl-1,2-dihydroquinoline]  89%
